Assay results: PubChem BioAssay AID330 (DTP/NCI, 2004)
“And” between values parts separate entries of the source, which are not always exact repeats. Equal values may be shown once. Toxic doses and inconclusive results are not listed. How the source made its calls: active means survival T/C of 150% or more; inactive means T/C below 125% in these data.

System: P388 leukemia ip, CD2F1 mice, survival T/C
Assay: NCI In Vivo Anticancer Drug Screen. Data for tumor model P388 Leukemia (intraperitoneal) in CD2F1 (CDF1) mice
Conditions: endpoint: median survival time, higher = longer survival
Summary of the method: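 Mice carrying the transplanted tumor received test compound or vehicle. Survival was recorded in each group, and the value is the treated-group measurement divided by that of the vehicle-treated control group.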

[1] = dose: 50.0 mg/kg/injection, schedule: Q01DX005 (ip), vehicle: saline with Tween-80
[2] = dose: 100.0 mg/kg/injection, schedule: Q01DX005 (ip), vehicle: saline with Tween-80
[3] = dose: 60.0 mg/kg/injection, schedule: Q01DX005 (ip), vehicle: Klucel (hydroxypropylcellulose) (HPC)
[4] = dose: 120.0 mg/kg/injection, schedule: Q01DX005 (ip), vehicle: Klucel (hydroxypropylcellulose) (HPC)
[5] = dose: 240.0 mg/kg/injection, schedule: Q01DX005 (ip), vehicle: Klucel (hydroxypropylcellulose) (HPC)
[6] = dose: 100.0 mg/kg/injection, schedule: Q01DX009 (ip), vehicle: Klucel (hydroxypropylcellulose) (HPC)
[7] = dose: 200.0 mg/kg/injection, schedule: Q01DX009 (ip), vehicle: Klucel (hydroxypropylcellulose) (HPC)
[8] = dose: 400.0 mg/kg/injection, schedule: Q01DX009 (ip), vehicle: Klucel (hydroxypropylcellulose) (HPC)
[9] = dose: 50.0 mg/kg/injection, schedule: Q01DX009 (ip), vehicle: saline
[10] = dose: 50.0 mg/kg/injection, schedule: Q01DX005 (ip), vehicle: Klucel (hydroxypropylcellulose) (HPC)
[11] = dose: 100.0 mg/kg/injection, schedule: Q01DX005 (ip), vehicle: Klucel (hydroxypropylcellulose) (HPC)
[12] = dose: 200.0 mg/kg/injection, schedule: Q01DX005 (ip), vehicle: Klucel (hydroxypropylcellulose) (HPC)
[13] = dose: 50.0 mg/kg/injection, schedule: Q01DX009 (ip), vehicle: Klucel (hydroxypropylcellulose) (HPC)
[14] = dose: 12.5 mg/kg/injection, schedule: Q01DX009 (ip), vehicle: saline
[15] = dose: 25.0 mg/kg/injection, schedule: Q01DX009 (ip), vehicle: saline

Measured: T/C

CC(=O)OC1C2(CC3N4C(=O)C5(CO)SSC4(CC31O)C(=O)N5C)OC(C)C(C)(C)C2=O (stereo not drawn)
inactive: dose: 0.08 mg/kg/injection, schedule: Q01DX009 (ip), vehicle: saline 101 % of control | dose: 0.15 mg/kg/injection, schedule: Q01DX009 (ip), vehicle: saline 108 % of control | dose: 0.3 mg/kg/injection, schedule: Q01DX009 (ip), vehicle: saline 111 % of control | dose: 0.31 mg/kg/injection, schedule: Q01DX009 (ip), vehicle: saline 107 % of control | dose: 0.6 mg/kg/injection, schedule: Q01DX009 (ip), vehicle: saline 111 % of control | dose: 0.63 mg/kg/injection, schedule: Q01DX009 (ip), vehicle: saline with Tween-80 97 % of control | dose: 0.63 mg/kg/injection, schedule: Q01DX009 (ip), vehicle: saline 107 % of control | dose: 0.78 mg/kg/injection, schedule: Q01DX009 (oral), vehicle: saline 104 % of control | dose: 1.2 mg/kg/injection, schedule: Q01DX009 (ip), vehicle: saline 99 % of control | dose: 1.25 mg/kg/injection, schedule: Q01DX009 (ip), vehicle: saline 103 % of control and 111 % of control | dose: 1.56 mg/kg/injection, schedule: Q01DX009 (oral), vehicle: saline 105 % of control | dose: 3.12 mg/kg/injection, schedule: Q01DX009 (oral), vehicle: saline 100 % of control and 101 % of control | dose: 6.25 mg/kg/injection, schedule: Q01DX009 (oral), vehicle: saline 95 % of control | dose: 12.5 mg/kg/injection, schedule: Q01DX009 (oral), vehicle: saline 89 % of control

COc1cccc(CC(=O)NCCc2ccc(OC)c(OC)c2)c1
inactive: dose: 100.0 mg/kg/injection, schedule: Q01DX009 (ip), vehicle: saline with Tween-80 100 % of control | dose: 200.0 mg/kg/injection, schedule: Q01DX009 (ip), vehicle: saline with Tween-80 100 % of control | dose: 400.0 mg/kg/injection, schedule: Q01DX009 (ip), vehicle: saline with Tween-80 104 % of control

C[N+](C)(C)[C@H]1CCCC[C@@H]1O
inactive: dose: 50.0 mg/kg/injection, schedule: Q01DX005 (ip), vehicle: distilled water + alcohol 104 % of control | dose: 100.0 mg/kg/injection, schedule: Q01DX005 (ip), vehicle: distilled water + alcohol 99 % of control | dose: 200.0 mg/kg/injection, schedule: Q01DX005 (ip), vehicle: distilled water + alcohol 105 % of control

CN(C)CCCNc1c2c(nc3ccc(Cl)cc13)CCCC2
inactive: [1] 104 % of control | [2] 106 % of control

Nc1ccnc(F)n1
inactive: [3] 100 % of control | [4] 106 % of control | [5] 106 % of control

CCCCCCCCC(=O)c1c(OC)oc(/C=N/NC(N)=S)cc1=O
inactive: [6] 86 % of control | [7] 91 % of control | [8] 98 % of control

CS(=O)(=O)C(c1nc2nnc(NC(=O)Nc3ccc(Cl)cc3)n2[nH]c1=O)c1nc2nnc(NC(=O)Nc3ccc(Cl)cc3)n2[nH]c1=O
inactive: dose: 60.0 mg/kg/injection, schedule: Q01DX005 (ip), vehicle: saline with Tween-80 104 % of control | dose: 120.0 mg/kg/injection, schedule: Q01DX005 (ip), vehicle: saline with Tween-80 100 % of control | dose: 240.0 mg/kg/injection, schedule: Q01DX005 (ip), vehicle: saline with Tween-80 98 % of control

COC(=O)NN(C(=O)OC)C12CCCCC1N(C(=O)OC)N(C(=O)OC)c1ccccc12 (stereo not drawn)
inactive: dose: 100.0 mg/kg/injection, schedule: Q01DX001 (ip), vehicle: Klucel (hydroxypropylcellulose) (HPC) 103 % of control | dose: 200.0 mg/kg/injection, schedule: Q01DX001 (ip), vehicle: Klucel (hydroxypropylcellulose) (HPC) 98 % of control | dose: 400.0 mg/kg/injection, schedule: Q01DX001 (ip), vehicle: Klucel (hydroxypropylcellulose) (HPC) 100 % of control

O=c1[nH]c2cc(Cl)ccc2nc1/C=C(\O)c1ccc([N+](=O)[O-])cc1
inactive: [3] 101 % of control | [4] 96 % of control | [5] 89 % of control

CCOC(=O)CSCC(N)=O
inactive: [9] 100 % of control | dose: 100.0 mg/kg/injection, schedule: Q01DX009 (ip), vehicle: saline 100 % of control | dose: 200.0 mg/kg/injection, schedule: Q01DX009 (ip), vehicle: saline 98 % of control

CCOC(=O)CC(=O)c1ccoc1
inactive: [1] 110 % of control | [2] 105 % of control | dose: 200.0 mg/kg/injection, schedule: Q01DX005 (ip), vehicle: saline with Tween-80 110 % of control

CC1COCC(C)OC(C)COCC(C)OC(=O)COCC(=O)O1 (stereo not drawn)
inactive: dose: 100.0 mg/kg/injection, schedule: Q04DX003 (ip), vehicle: Klucel (hydroxypropylcellulose) (HPC) 104 % of control | dose: 200.0 mg/kg/injection, schedule: Q04DX003 (ip), vehicle: Klucel (hydroxypropylcellulose) (HPC) 110 % of control | dose: 400.0 mg/kg/injection, schedule: Q04DX003 (ip), vehicle: Klucel (hydroxypropylcellulose) (HPC) 103 % of control

Cc1cc(NCCCCCCCNc2cc(C)nc3cc(N)ccc23)c2ccc(N)cc2n1
active: dose: 1.56 mg/kg/injection, schedule: Q01DX009 (ip), vehicle: other 165 % of control | dose: 3.13 mg/kg/injection, schedule: Q01DX009 (ip), vehicle: other 158 % of control | dose: 6.25 mg/kg/injection, schedule: Q01DX009 (ip), vehicle: other 186 % of control and 196 % of control | dose: 12.5 mg/kg/injection, schedule: Q01DX009 (ip), vehicle: other 157 % of control and 186 % of control

CSc1nccn2c(C)nnc12
inactive: dose: 100.0 mg/kg/injection, schedule: Q01DX001 (ip), vehicle: suspension in saline 92 % of control | dose: 200.0 mg/kg/injection, schedule: Q01DX001 (ip), vehicle: suspension in saline 100 % of control

O=c1c2cccc3cccc(c32)c2nc3ccccc3n12
inactive: dose: 4.12 mg/kg/injection, schedule: Q01DX009 (ip), vehicle: saline with Tween-80 108 % of control | dose: 6.25 mg/kg/injection, schedule: Q01DX009 (ip), vehicle: saline with Tween-80 100 % of control | dose: 25.0 mg/kg/injection, schedule: Q01DX009 (ip), vehicle: saline with Tween-80 95 % of control

CC1=CC(=C2C(=O)c3ccccc3C2=O)N(CCN2CCCCC2)C=C1
inactive: [10] 93 % of control | [11] 102 % of control | [12] 93 % of control

COc1cccc(/C=C2\CCc3ccccc3C2=O)c1
inactive: [13] 100 % of control | [6] 99 % of control | [7] 106 % of control

CC(CN)c1ccccc1 (stereo not drawn)
inactive: [14] 111 % of control | [15] 101 % of control | [9] 101 % of control and 103 % of control

CC[n+]1c(-c2ccccc2)c2cc(NCCCN)ccc2c2ccc(N)cc21
inactive: dose: 1.25 mg/kg/injection, schedule: Q01DX009 (ip), vehicle: water 97 % of control | dose: 2.5 mg/kg/injection, schedule: Q01DX009 (ip), vehicle: water 116 % of control | dose: 5.0 mg/kg/injection, schedule: Q01DX009 (ip), vehicle: water 103 % of control | dose: 10.0 mg/kg/injection, schedule: Q01DX009 (ip), vehicle: water 115 % of control | dose: 20.0 mg/kg/injection, schedule: Q01DX009 (ip), vehicle: water 116 % of control

CC(C)(O)c1cccc2c(C(C)(C)O)cccc12
inactive: [13] 88 % of control | [6] 97 % of control | [7] 93 % of control and 94 % of control | [8] 91 % of control

CSc1cccc(NC(=O)Nc2ccccc2C(N)=O)c1
inactive: [13] 94 % of control | [6] 103 % of control | [7] 94 % of control

CCCn1c(C)nc2cc(C)cc(N)c21
inactive: dose: 12.5 mg/kg/injection, schedule: Q01DX005 (ip), vehicle: saline with Tween-80 100 % of control | dose: 25.0 mg/kg/injection, schedule: Q01DX005 (ip), vehicle: saline with Tween-80 89 % of control | [1] 90 % of control and 94 % of control

CC12C(=O)OC(=O)C1(O)C1c3ccccc3C2c2ccccc21 (stereo not drawn)
inactive: [10] 101 % of control | [11] 101 % of control | [12] 101 % of control

N=C(N)SCCCC(=O)O
inactive: [14] 102 % of control | [15] 120 % of control | [9] 95 % of control

CC[N+]1(CC)CCCCC1
inactive: dose: 3.12 mg/kg/injection, schedule: Q01DX009 (ip), vehicle: saline 109 % of control | dose: 6.25 mg/kg/injection, schedule: Q01DX009 (ip), vehicle: saline 109 % of control | [14] 105 % of control
